Assay results: ChEMBL document CHEMBL1151447, “Complex class 1 integrons with diverse variable regions, including aac(6')-Ib-cr, and a novel allele, qnrB10, associated with ISCR1 in clinical enterobacterial isolates from Argentina” (2007)

system: Escherichia coli; test: Antimicrobial activity against Escherichia coli DH10B in presence of IPTG; format: functional; details: K-12 substr. DH10B

| Structure (SMILES) | MIC |
| --- | --- |
| NCC[C@H](O)C(=O)N[C@@H]1C[C@H](N)[C@@H](O[C@H]2O[C@H](CN)[C@@H](O)[C@H](O)[C@H]2O)[C@H](O)[C@H]1O[C@H]1O[C@H](CO)[C@@H](O)[C@H](N)[C@H]1O [AMIKACIN] | 1000 ng/mL |
| COc1c(N2CCNC(C)C2)c(F)cc2c(=O)c(C(=O)O)cn(C3CC3)c12 (stereo unspecified) [GATIFLOXACIN] | 4 ng/mL |
| NC[C@H]1O[C@H](O[C@H]2[C@H](O)[C@@H](O[C@H]3O[C@H](CO)[C@@H](O)[C@H](N)[C@H]3O)[C@H](N)C[C@@H]2N)[C@H](O)[C@@H](O)[C@@H]1O [KANAMYCIN] | 1000 ng/mL |
| C[C@H]1COc2c(N3CCN(C)CC3)c(F)cc3c(=O)c(C(=O)O)cn1c23.C[C@H]1COc2c(N3CCN(C)CC3)c(F)cc3c(=O)c(C(=O)O)cn1c23.O [LEVOFLOXACIN] | 4 ng/mL |
| COc1c(N2C[C@@H]3CCCN[C@@H]3C2)c(F)cc2c(=O)c(C(=O)O)cn(C3CC3)c12 [MOXIFLOXACIN] | 4 ng/mL |
| CCn1cc(C(=O)O)c(=O)c2ccc(C)nc21 [NALIDIXIC ACID] | 2000 ng/mL |
| CCn1cc(C(=O)O)c(=O)c2cc(F)c(N3CCNCC3)cc21 [NORFLOXACIN] | 8 ng/mL |
| CC1COc2c(N3CCN(C)CC3)c(F)cc3c(=O)c(C(=O)O)cn1c23 (stereo unspecified) [OFLOXACIN] | 4 ng/mL |
| NC[C@H]1O[C@H](O[C@H]2[C@H](O)[C@@H](O[C@H]3O[C@H](CO)[C@@H](O)[C@H](N)[C@H]3O)[C@H](N)C[C@@H]2N)[C@H](N)C[C@@H]1O [TOBRAMYCIN] | 250 ng/mL |

system: Escherichia coli; test: Antimicrobial activity against multidrug-resistant Escherichia coli M7943-TC2 bearing qnrB10 gene with aac(6)-Ib-cr-blaOXA-30 catB3-arr-3 integron in presence of IPTG; format: functional; details: not given

| Structure (SMILES) | MIC |
| --- | --- |
| NCC[C@H](O)C(=O)N[C@@H]1C[C@H](N)[C@@H](O[C@H]2O[C@H](CN)[C@@H](O)[C@H](O)[C@H]2O)[C@H](O)[C@H]1O[C@H]1O[C@H](CO)[C@@H](O)[C@H](N)[C@H]1O [AMIKACIN] | 4 µg/mL |
| COc1c(N2CCNC(C)C2)c(F)cc2c(=O)c(C(=O)O)cn(C3CC3)c12 (stereo unspecified) [GATIFLOXACIN] | 0.5 µg/mL |
| NC[C@H]1O[C@H](O[C@H]2[C@H](O)[C@@H](O[C@H]3O[C@H](CO)[C@@H](O)[C@H](N)[C@H]3O)[C@H](N)C[C@@H]2N)[C@H](O)[C@@H](O)[C@@H]1O [KANAMYCIN] | 64 µg/mL |
| COc1c(N2C[C@@H]3CCCN[C@@H]3C2)c(F)cc2c(=O)c(C(=O)O)cn(C3CC3)c12 [MOXIFLOXACIN] | 1 µg/mL |
| CCn1cc(C(=O)O)c(=O)c2ccc(C)nc21 [NALIDIXIC ACID] | 16 µg/mL |
| CCn1cc(C(=O)O)c(=O)c2cc(F)c(N3CCNCC3)cc21 [NORFLOXACIN] | 2 µg/mL |
| NC[C@H]1O[C@H](O[C@H]2[C@H](O)[C@@H](O[C@H]3O[C@H](CO)[C@@H](O)[C@H](N)[C@H]3O)[C@H](N)C[C@@H]2N)[C@H](N)C[C@@H]1O [TOBRAMYCIN] | 16 µg/mL |

system: Escherichia coli; test: Antimicrobial activity against Escherichia coli DH10B expressing pCRQB10 in presence of IPTG; format: functional; details: K-12 substr. DH10B

| Structure (SMILES) | MIC |
| --- | --- |
| NCC[C@H](O)C(=O)N[C@@H]1C[C@H](N)[C@@H](O[C@H]2O[C@H](CN)[C@@H](O)[C@H](O)[C@H]2O)[C@H](O)[C@H]1O[C@H]1O[C@H](CO)[C@@H](O)[C@H](N)[C@H]1O [AMIKACIN] | 2 µg/mL |
| COc1c(N2CCNC(C)C2)c(F)cc2c(=O)c(C(=O)O)cn(C3CC3)c12 (stereo unspecified) [GATIFLOXACIN] | 0.06 µg/mL |
| NC[C@H]1O[C@H](O[C@H]2[C@H](O)[C@@H](O[C@H]3O[C@H](CO)[C@@H](O)[C@H](N)[C@H]3O)[C@H](N)C[C@@H]2N)[C@H](O)[C@@H](O)[C@@H]1O [KANAMYCIN] | ≥ 256 µg/mL |
| COc1c(N2C[C@@H]3CCCN[C@@H]3C2)c(F)cc2c(=O)c(C(=O)O)cn(C3CC3)c12 [MOXIFLOXACIN] | 0.125 µg/mL |
| CCn1cc(C(=O)O)c(=O)c2ccc(C)nc21 [NALIDIXIC ACID] | 8 µg/mL |
| CCn1cc(C(=O)O)c(=O)c2cc(F)c(N3CCNCC3)cc21 [NORFLOXACIN] | 0.125 µg/mL |
| NC[C@H]1O[C@H](O[C@H]2[C@H](O)[C@@H](O[C@H]3O[C@H](CO)[C@@H](O)[C@H](N)[C@H]3O)[C@H](N)C[C@@H]2N)[C@H](N)C[C@@H]1O [TOBRAMYCIN] | 0.25 µg/mL |

system: Escherichia coli; test: Antimicrobial activity against Escherichia coli J53-AzR in presence of IPTG; format: functional; details: not given

| Structure (SMILES) | MIC |
| --- | --- |
| NCC[C@H](O)C(=O)N[C@@H]1C[C@H](N)[C@@H](O[C@H]2O[C@H](CN)[C@@H](O)[C@H](O)[C@H]2O)[C@H](O)[C@H]1O[C@H]1O[C@H](CO)[C@@H](O)[C@H](N)[C@H]1O [AMIKACIN] | 0.5 µg/mL |
| COc1c(N2CCNC(C)C2)c(F)cc2c(=O)c(C(=O)O)cn(C3CC3)c12 (stereo unspecified) [GATIFLOXACIN] | 0.03 µg/mL |
| NC[C@H]1O[C@H](O[C@H]2[C@H](O)[C@@H](O[C@H]3O[C@H](CO)[C@@H](O)[C@H](N)[C@H]3O)[C@H](N)C[C@@H]2N)[C@H](O)[C@@H](O)[C@@H]1O [KANAMYCIN] | 2 µg/mL |
| CCn1cc(C(=O)O)c(=O)c2ccc(C)nc21 [NALIDIXIC ACID] | 4 µg/mL |
| CCn1cc(C(=O)O)c(=O)c2cc(F)c(N3CCNCC3)cc21 [NORFLOXACIN] | 0.03 µg/mL |
| NC[C@H]1O[C@H](O[C@H]2[C@H](O)[C@@H](O[C@H]3O[C@H](CO)[C@@H](O)[C@H](N)[C@H]3O)[C@H](N)C[C@@H]2N)[C@H](N)C[C@@H]1O [TOBRAMYCIN] | 0.25 µg/mL |

system: Escherichia coli; test: Antimicrobial activity against Escherichia coli DH10B expressing pCR2.1 in presence of IPTG; format: functional; details: K-12 substr. DH10B

| Structure (SMILES) | MIC |
| --- | --- |
| NCC[C@H](O)C(=O)N[C@@H]1C[C@H](N)[C@@H](O[C@H]2O[C@H](CN)[C@@H](O)[C@H](O)[C@H]2O)[C@H](O)[C@H]1O[C@H]1O[C@H](CO)[C@@H](O)[C@H](N)[C@H]1O [AMIKACIN] | 2000 ng/mL |
| COc1c(N2CCNC(C)C2)c(F)cc2c(=O)c(C(=O)O)cn(C3CC3)c12 (stereo unspecified) [GATIFLOXACIN] | 4 ng/mL |
| NC[C@H]1O[C@H](O[C@H]2[C@H](O)[C@@H](O[C@H]3O[C@H](CO)[C@@H](O)[C@H](N)[C@H]3O)[C@H](N)C[C@@H]2N)[C@H](O)[C@@H](O)[C@@H]1O [KANAMYCIN] | ≥ 256000 ng/mL |
| C[C@H]1COc2c(N3CCN(C)CC3)c(F)cc3c(=O)c(C(=O)O)cn1c23.C[C@H]1COc2c(N3CCN(C)CC3)c(F)cc3c(=O)c(C(=O)O)cn1c23.O [LEVOFLOXACIN] | 4 ng/mL |
| COc1c(N2C[C@@H]3CCCN[C@@H]3C2)c(F)cc2c(=O)c(C(=O)O)cn(C3CC3)c12 [MOXIFLOXACIN] | 4 ng/mL |
| CCn1cc(C(=O)O)c(=O)c2ccc(C)nc21 [NALIDIXIC ACID] | 2000 ng/mL |
| CCn1cc(C(=O)O)c(=O)c2cc(F)c(N3CCNCC3)cc21 [NORFLOXACIN] | 8 ng/mL |
| CC1COc2c(N3CCN(C)CC3)c(F)cc3c(=O)c(C(=O)O)cn1c23 (stereo unspecified) [OFLOXACIN] | 4 ng/mL |
| NC[C@H]1O[C@H](O[C@H]2[C@H](O)[C@@H](O[C@H]3O[C@H](CO)[C@@H](O)[C@H](N)[C@H]3O)[C@H](N)C[C@@H]2N)[C@H](N)C[C@@H]1O [TOBRAMYCIN] | 250 ng/mL |

system: Klebsiella pneumoniae; test: Antimicrobial activity against multidrug-resistant Klebsiella pneumoniae M7943 bearing qnrB10 gene with aac(6)-Ib-cr-blaOXA-30 catB3-arr-3 integron in presence of IPTG; format: functional; details: not given

| Structure (SMILES) | MIC |
| --- | --- |
| NCC[C@H](O)C(=O)N[C@@H]1C[C@H](N)[C@@H](O[C@H]2O[C@H](CN)[C@@H](O)[C@H](O)[C@H]2O)[C@H](O)[C@H]1O[C@H]1O[C@H](CO)[C@@H](O)[C@H](N)[C@H]1O [AMIKACIN] | 16 µg/mL |
| O=C(O)c1cn(C2CC2)c2cc(N3CCNCC3)c(F)cc2c1=O [CIPROFLOXACIN] | 32 µg/mL |
| COc1c(N2CCNC(C)C2)c(F)cc2c(=O)c(C(=O)O)cn(C3CC3)c12 (stereo unspecified) [GATIFLOXACIN] | 4 µg/mL |
| NC[C@H]1O[C@H](O[C@H]2[C@H](O)[C@@H](O[C@H]3O[C@H](CO)[C@@H](O)[C@H](N)[C@H]3O)[C@H](N)C[C@@H]2N)[C@H](O)[C@@H](O)[C@@H]1O [KANAMYCIN] | 128 µg/mL |
| C[C@H]1COc2c(N3CCN(C)CC3)c(F)cc3c(=O)c(C(=O)O)cn1c23.C[C@H]1COc2c(N3CCN(C)CC3)c(F)cc3c(=O)c(C(=O)O)cn1c23.O [LEVOFLOXACIN] | 4 µg/mL |
| COc1c(N2C[C@@H]3CCCN[C@@H]3C2)c(F)cc2c(=O)c(C(=O)O)cn(C3CC3)c12 [MOXIFLOXACIN] | 8 µg/mL |
| CCn1cc(C(=O)O)c(=O)c2ccc(C)nc21 [NALIDIXIC ACID] | 128 µg/mL |
| CCn1cc(C(=O)O)c(=O)c2cc(F)c(N3CCNCC3)cc21 [NORFLOXACIN] | 32 µg/mL |
| CC1COc2c(N3CCN(C)CC3)c(F)cc3c(=O)c(C(=O)O)cn1c23 (stereo unspecified) [OFLOXACIN] | 8 µg/mL |
| NC[C@H]1O[C@H](O[C@H]2[C@H](O)[C@@H](O[C@H]3O[C@H](CO)[C@@H](O)[C@H](N)[C@H]3O)[C@H](N)C[C@@H]2N)[C@H](N)C[C@@H]1O [TOBRAMYCIN] | 16 µg/mL |

system: Enterobacter cloacae; test: Antimicrobial activity against multidrug-resistant Enterobacter cloacae E705 bearing qnrB10 gene with aac(6)-IId-aadA1a integron in presence of IPTG; format: functional; details: not given

| Structure (SMILES) | MIC |
| --- | --- |
| NCC[C@H](O)C(=O)N[C@@H]1C[C@H](N)[C@@H](O[C@H]2O[C@H](CN)[C@@H](O)[C@H](O)[C@H]2O)[C@H](O)[C@H]1O[C@H]1O[C@H](CO)[C@@H](O)[C@H](N)[C@H]1O [AMIKACIN] | 8 µg/mL |
| COc1c(N2CCNC(C)C2)c(F)cc2c(=O)c(C(=O)O)cn(C3CC3)c12 (stereo unspecified) [GATIFLOXACIN] | 32 µg/mL |
| NC[C@H]1O[C@H](O[C@H]2[C@H](O)[C@@H](O[C@H]3O[C@H](CO)[C@@H](O)[C@H](N)[C@H]3O)[C@H](N)C[C@@H]2N)[C@H](O)[C@@H](O)[C@@H]1O [KANAMYCIN] | ≥ 256 µg/mL |
| C[C@H]1COc2c(N3CCN(C)CC3)c(F)cc3c(=O)c(C(=O)O)cn1c23.C[C@H]1COc2c(N3CCN(C)CC3)c(F)cc3c(=O)c(C(=O)O)cn1c23.O [LEVOFLOXACIN] | ≥ 64 µg/mL |
| CCn1cc(C(=O)O)c(=O)c2ccc(C)nc21 [NALIDIXIC ACID] | ≥ 256 µg/mL |
| CCn1cc(C(=O)O)c(=O)c2cc(F)c(N3CCNCC3)cc21 [NORFLOXACIN] | ≥ 64 µg/mL |
| CC1COc2c(N3CCN(C)CC3)c(F)cc3c(=O)c(C(=O)O)cn1c23 (stereo unspecified) [OFLOXACIN] | ≥ 64 µg/mL |
| NC[C@H]1O[C@H](O[C@H]2[C@H](O)[C@@H](O[C@H]3O[C@H](CO)[C@@H](O)[C@H](N)[C@H]3O)[C@H](N)C[C@@H]2N)[C@H](N)C[C@@H]1O [TOBRAMYCIN] | 32 µg/mL |
